Active and inactive are the calls of the source. The calls are words filed in the database; no cut-off is given here.
Experiments:
[1] = Inhibition of 20S proteasome beta 1c derived from human erythrocytes preincubated for 1 hr using Z-nLPnLD-Glo peptide as substrate by proteasome-glo caspase-like assay
[2] = Inhibition of human 20S proteasome beta 5i preincubated for 1 hr followed by fluorescence based assay
[3] = Inhibition of 20S proteasome beta 5i/20S proteasome beta 1i in human PBMC cell lysate assessed as reduction in chymotrypsin-like activity pre-incubated for 30 mins followed by Meo-Suc-GLF-AM substrate addition and measured after 30 mins by fluorescence assay; format: subcellular
[4] = Inhibition of 20S proteasome beta 5c (unknown origin) preincubated for 1 hr followed by fluorescence based assay; parameters: species or system Homo sapiens
[5] = Inhibition of human 20S proteasome beta 1i
[6] = species on record: Homo sapiens; experiment: Selectivity ratio, ratio of IC50 for 20S proteasome beta 5c (unknown origin) to IC50 for human 20S proteasome beta 1i
[7] = species on record: Homo sapiens; experiment: (§1) Cytotoxicity against anti-CD3/CD28-stimulated human CD4-positive T cells with CRISP/CAS9 20S proteasome beta 5c knockout assessed as reduction in cell viability measured on day 8 by CellTiter Glo assay relative to control; format: functional
[8] = species on record: Homo sapiens; experiment: Inhibition of 20S proteasome beta 5i in human PBMC cells assessed as induction of PSMB6 expression at 100 nM after 3 to 72 hrs by RT-PCR analysis; format: cell-based
[9] = species on record: Homo sapiens; experiment: Selectivity ratio, ratio of IC50 for human 20S proteasome beta 1i to IC50 for 20S proteasome beta 5i (unknown origin)
[10] = Cytotoxicity against human plasmablasts assessed as reduction in cell viability by CellTiter Glo assay; format: functional
[11] = Cytotoxicity against human pDC assessed as reduction in cell viability by CellTiter Glo assay; format: functional
[12] = species on record: Homo sapiens; experiment: Inhibition of 20S proteasome beta 5i in human PBMC cells assessed as induction of PSMB7 expression at 100 nM after 3 to 72 hrs by RT-PCR method; format: cell-based
[13] = system: PBMC; experiment: Induction of ubiquitin accumulation in human PBMC cells at 100 nM after 6 hrs by Western blot analysis; format: functional, cell-based
[14] = system: PBMC; experiment: Induction of apoptosis in human PBMC cells at 10 uM after 12 hrs by caspase 3,7-glo assay; format: functional, cell-based
[15] = species on record: Homo sapiens; experiment: Selectivity ratio, ratio of IC50 for 20S proteasome beta 1c (unknown origin) to IC50 for human 20S proteasome beta 5i
[16] = system: PBMC; experiment: Cytotoxicity against human PBMC cells assessed as reduction in cell viability by CellTiter Glo assay; format: functional, cell-based
[17] = species on record: Homo sapiens; experiment: Inhibition of 20S proteasome beta 5i in human PBMC cells assessed as induction of PSMB5 expression at 100 nM after 3 to 72 hrs by RT-PCR analysis; format: cell-based
[18] = species on record: Homo sapiens; experiment: Inhibition of 20S proteasome beta 5i in human PBMC cells assessed as upregulation of 20S proteasome beta 5c level at 100 nM after 24 to 72 hrs by Western blot analysis; format: cell-based
[19] = species on record: Homo sapiens; experiment: Selectivity ratio, ratio of IC50 for 20S proteasome beta 5c (unknown origin) to IC50 for human 20S proteasome beta 5i
[20] = as §1; format: functional
[21] = Cytotoxicity against anti-CD3/CD28-stimulated human CD4-positive T cells with CRISP/CAS9 20S proteasome beta 5i knockout assessed as reduction in cell viability measured on day 8 by CellTiter Glo assay relative to control; format: functional

IC50 [1]	IC50 [2]	IC50 [3]	IC50 [4]	IC50 [5]	Ratio IC50 [6]	Ratio IC50 [19]	SMILES	also measured
> 20 µM	0.0068 µM	0.13 µM	3.2 µM	0.012 µM			O=C(N[C@@H](Cc1ccc(Cl)cc1)B(O)O)c1cnn(-c2ccccc2)c1	
4.2 µM	0.0014 µM	0.025 µM	0.76 µM	0.00058 µM	1300 to 3400		CC(C)C[C@H](NC(=O)c1cn(-c2ccccc2)nn1)B(O)O	
> 20 µM	0.0081 µM		2.4 µM	2.2 µM	1.1	283 to 296	C=CC(=O)N(CC(=O)N[C@@H](Cc1ccc(C)cc1C)B(O)O)c1ccccc1F	Activity [7]: Active; inhibition [8]: Active; Ratio IC50 [9]: 247; IC50 [10]: 0.67 µM; IC50 [11]: 6 µM; inhibition [12]: Active; Activity [13]: inactive; Activity [14]: inactive; Ratio IC50 [15]: > 2400; IC50 [16]: 5.7 µM; inhibition [17]: Active; inhibition [18]: Active
> 20 µM	0.0041 µM	0.079 µM	9.1 µM	8.5 µM		2200	Cc1ccc(C[C@H](NC(=O)c2nnn(Cc3ccccc3)c2C)B2O[C@@H]3C[C@@H]4C[C@@H](C4(C)C)[C@]3(C)O2)c(C)c1	Ratio IC50 [9]: 2100; IC50 [10]: 9.3 µM; IC50 [11]: > 10 µM; Ratio IC50 [15]: > 4800; IC50 [16]: > 10 µM
18 µM	0.13 µM	0.31 µM	> 10 µM	0.041 µM			Cc1c(C(=O)N[C@@H](CC(C)C)B(O)O)nnn1-c1ccccc1	
1.4 µM	0.023 µM	0.085 µM	3 µM	0.0094 µM			CC(C)C[C@H](NC(=O)c1cc(Cc2ccccc2)on1)B(O)O	
> 20 µM	0.04 µM	0.29 µM	7.3 µM	0.015 µM			Cc1c(C(=O)N[C@@H](CC(C)C)B(O)O)nnn1Cc1ccccc1	Ratio IC50 [9]: 0.4
0.48 µM	0.0041 µM	0.06 µM	2.9 µM	0.00085 µM	1300 to 3400	710	CC(C)C[C@H](NC(=O)c1cn(C2CCCCC2)nn1)B(O)O	Ratio IC50 [9]: 0.2; IC50 [10]: 2.9 µM; IC50 [11]: 3.7 µM; Ratio IC50 [15]: 120; IC50 [16]: 7.3 µM
11 µM	2.1 µM		0.078 µM	0.69 µM	0.11	0.04	COC[C@H](NC(=O)c1cc(C)on1)C(=O)N[C@H](C(=O)N[C@@H](CC(C)C)C(=O)[C@@]1(C)CO1)C1CC1	inhibition [8]: Active; inhibition [12]: Active; inhibition [17]: Active
0.032 µM				0.0079 µM			CC(C)C[C@H](NC(=O)[C@H](Cc1ccccc1)NC(=O)c1cnccn1)B(O)O [BORTEZOMIB]	fold change (FC) [20]: 3; inhibition [8]: Active; fold change (FC) [21]: 3; IC50 [10]: 0.0039 µM; IC50 [11]: 0.0052 µM; inhibition [12]: Active; IC50 [16]: 0.0027 µM; inhibition [17]: Active
> 20 µM	0.36 µM	8.9 µM	> 10 µM	0.019 µM			CC(C)C[C@H](NC(=O)c1ncn(Cc2ccccc2)n1)B(O)O	
0.53 µM	0.00054 µM	0.0023 µM	0.046 µM	0.0039 µM			O=C(N[C@@H](Cc1ccc(Cl)cc1)B(O)O)c1cn(Cc2ccccc2)nn1	
1.4 µM	0.0022 µM	0.034 µM	0.037 µM	0.0081 µM	5.2	17	COc1ccc(C(=O)NCCn2cc(C(=O)N[C@@H](CC(C)C)B(O)O)nn2)c(OC)c1OC	inhibition [8]: Active; Ratio IC50 [9]: 5.2; IC50 [10]: 0.054 µM; IC50 [11]: 0.022 µM; inhibition [12]: Active; Ratio IC50 [15]: 640; IC50 [16]: 0.1 µM; inhibition [17]: Active
> 20 µM	0.0041 µM	0.08 µM	1.3 µM	0.092 µM			Cc1ccc(C[C@H](NC(=O)c2cc(Cc3ccccc3)on2)B2O[C@@H]3C[C@@H]4C[C@@H](C4(C)C)[C@]3(C)O2)c(C)c1	
5.5 µM	0.00091 µM	0.0032 µM	0.064 µM	0.015 µM			O=C(N[C@@H](Cc1ccc(Cl)cc1)B(O)O)c1cn(-c2ccccc2)nn1	
> 20 µM	0.00068 µM	0.0069 µM	0.27 µM	0.05 µM			Cc1ccc(C[C@H](NC(=O)c2cn(-c3ccccc3)nn2)B2O[C@@H]3C[C@@H]4C[C@@H](C4(C)C)[C@]3(C)O2)c(C)c1	
13 µM	0.145 µM		1.3 µM	0.79 µM	1.6	9 to 20	COc1ccc(C[C@H](NC(=O)[C@H](C)NC(=O)CN2CCOCC2)C(=O)N[C@@H](Cc2ccccc2)C(=O)[C@@]2(C)CO2)cc1	inhibition [8]: Active; inhibition [12]: Active; inhibition [17]: Active
> 20 µM	0.087 µM	0.47 µM	7.7 µM	0.11 µM			O=C(N[C@@H](Cc1ccc(Cl)cc1)B(O)O)c1cnn(Cc2ccccc2)c1	
> 20 µM	0.0012 µM	0.011 µM	0.42 µM	0.017 µM			Cc1ccc(C[C@H](NC(=O)c2cn(Cc3ccccc3)nn2)B2O[C@@H]3C[C@@H]4C[C@@H](C4(C)C)[C@]3(C)O2)c(C)c1	
> 20 µM	0.055 µM	0.25 µM	9.6 µM	0.009 µM		174	CC(C)C[C@H](NC(=O)c1cn(C)nn1)B1O[C@@H]2C[C@@H]3C[C@@H](C3(C)C)[C@]2(C)O1	
0.071 µM	0.004 µM	0.045 µM	0.89 µM	0.00055 µM	1300 to 3400	220 to 710	CC(C)C[C@H](NC(=O)c1cn(Cc2ccccc2)nn1)B(O)O	Ratio IC50 [9]: 0.14
0.061 µM	0.019 µM	0.2 µM	0.35 µM	0.0063 µM			CC(C)C[C@H](NC(=O)c1nnc(Cc2ccccc2)[nH]1)B(O)O	

Source: ChEMBL document CHEMBL4373694 (J Med Chem, 2019)
